Here are results for two compounds from patent US7524862B2 (Boehringer Ingelheim International GmbH, priority 2004, dated 2009).

Broadly, the IC50 is the midpoint of a concentration-inhibition curve. Higher therefore signals a need for much substance.

The structures appear in SMILES notation.

This experiment concerns the target T1, human hMCH-1R (Homo sapiens, UniProt Q99705).
T1 construct: expressed in transfected cells; host or cells: CHO/Galpha16 cells (stably transfected), membranes
As to the kind of experiment: MCH-1 receptor binding test. The following applies: membranes from CHO/Galpha16 cells stably transfected with hMCH-1R; 125I-MCH. On the procedure: Membranes from CHO/Galpha16 cells stably transfected with human hMCH-1R are resuspended using a syringe (needle 0.6×25 mm) and diluted in test buffer (50 mM HEPES, 10 mM MgCl2, 2 mM EGTA, pH 7.00; 0.1% bovine serum albumin (protease-free), 0.021% bacitracin, 1 μg/mL aprotinin, 1 μg/mL leupeptin and 1 μM phosphoramidone) to a concentration of 5 to 15 μg/mL. […] After the incubation, the reaction is filtered using a cell harvester through 0.5% PEI treated fiberglass filters (GF/B, Unifilter Packard). The membrane-bound radioactivity retained on the filter is then determined after the addition of scintillator substance (Packard Microscint 20) in a measuring device (TopCount of Packard). […] The analysis of the concentration binding curve is carried out on the assumption of one receptor binding site.

T1 sequence (Q99705 whole entry): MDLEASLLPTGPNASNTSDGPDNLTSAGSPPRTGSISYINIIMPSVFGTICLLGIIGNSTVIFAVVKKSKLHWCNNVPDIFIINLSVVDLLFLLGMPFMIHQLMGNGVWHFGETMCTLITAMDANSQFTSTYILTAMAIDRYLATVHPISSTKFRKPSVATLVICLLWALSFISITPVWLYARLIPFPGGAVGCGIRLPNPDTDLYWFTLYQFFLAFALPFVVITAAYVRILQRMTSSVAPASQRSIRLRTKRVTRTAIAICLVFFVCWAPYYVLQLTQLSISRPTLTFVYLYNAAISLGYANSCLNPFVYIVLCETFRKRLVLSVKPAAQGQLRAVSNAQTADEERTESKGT

`Cc1cc(N2CCC(C)CC2)nc2ccc(C#Cc3ccc(-c4ccc(Cl)cc4)cn3)cc12` [Example 1.43, 6-[5-(4-chlorophenyl)pyridin-2-ylethynyl]-4-methyl-2-(4-methylpiperidin-1-yl)quinoline] yielded an IC50 of 246 nM.
The same measure for `Cc1cc(NC(C)C)nc2ccc(C#Cc3ccc(-c4ccc(Cl)cc4)cn3)cc12` [Example 1.44, {6-[5-(4-chlorophenyl)pyridin-2-ylethnyl]-4-methylquinolin-2-yl}isopropylamine]: 6.8 nM.
